From patent US5968978A, “Biphenylsulfonylcyanamides, process for their preparation, and their use as medicament” (Hoechst Marion Roussel Deutschland, priority 1997, dated 1999)

System: Na+-dependent Cl-/HCO3- exchanger (NCBE)
Test: Inhibition of the Na+-dependent Cl-/HCO3- exchanger (NCBE) in human endothelial cells (FLIPR, BCECF pHi recovery)
Type: cell-based
Details: inhibitor concentration of 10 μM; human endothelial cells (ECV-304); 50 μM HOE 642 present
Method: Inhibition of the Na^+ -dependent Cl^- /HCO3^- exchanger (NCBE) in human endothelial cells
Human endothelial cells (ECV-304) were detached from culture flasks with the aid of trypsin/EDTA buffer (0.05/0.02% in phosphate buffer) and, after centrifugation (100 g, 5 min), taken up in a buffered salt solution (mmol/l: 115 NaCl, 20 NH4 Cl, 5 KCl, 1 CaCl2, 1 MgSO4, 20 N-(2-hydroxyethyl)-piperazine-N'-2-ethanesulfonic acid (HEPES), 5 glucose and 1 g/l of bovine serumalbumin; pH 7.4). This cell suspension was incubated at 37° C. for 20 min with 5 μM BCECF acetoxymethyl ester. The cells were then washed and resuspended in a sodium- and bicarbonate-free buffer solution (mmol/l: 5 HEPES, 133.8 choline chloride, 4.7 KCl, 1.25 MgCl2, 0.97 K2 HPO4, 0.23 KH2 PO4, 5 glucose; pH 7.4).
The subsequent fluorescence measurement in the FLIPR (Fluorescent Imaging Plate Reader), 100 μl of this cell suspension in each case containing 20000 cells were added by pipette per well of a 96-well microtiter plate and this microtiter plate was centrifuged (100 g, 5 min).
In the FLIPR, 100 μl of buffer solution in each case were then removed from a further prepared microtiter plate and added by pipette to each of the 96 wells of the measuring plate. In this case, for a 100% control, i.e. a recovery of the intracellular pH (pHi) by means of the NCBE, a bicarbonate- and sodium-containing buffer solution (mmol/l: 5 HEPES, 93.8 NaCl, 40 NaHCO3, 4.7 KCl, 1.25 CaCl2, 1.25 MgCl2, 0.97 Na2 HPO4, 0.23 NaH2 PO4, 5 glucose; pH 7.4) which contained 50 μM HOE 642 was used. For a 0% control, i.e. no pHi recovery at all, a bicarbonate-free, sodium-containing buffer solution (mmol/l: 5 HEPES, 133.8 NaCl, 4.7 KCl, 1.25 CaCl2, 1.25 MgCl2, 0.97 Na2 HPO4, 0.23 NaH2 PO4, 5 glucose; pH 7.4) to which 50 μM HOE 642 were also added was employed. The compounds of the formula (I) according to the invention were added in various concentrations of the sodium- and bicarbonate-containing solution.
After addition of the buffer solutions to the dye-loaded acidified cells situated in the measuring plate,the increase in the fluorescence intensity which corresponded to an increase in the pHi was determined in each well of the microtiter plate. The kinetics were in this case recorded at 35° C. over a period of 2 minutes.
The increase in the fluorescence intensities for different concentrations of the compounds according to the invention was related to the two controls and from this the inhibitory action of the substances was determined.

Row | Structure (SMILES) | Residual activity of the NCBE [%]
1 | N#CNS(=O)(=O)c1ccccc1-c1ccc(C=C2CCCCC2)cc1 [Example 1, 4'-Cyclohexylidenemethylbiphenyl-2-sulfonylcyanamide] | 68.4
2 | N#CNS(=O)(=O)c1ccccc1-c1ccc(CC2CCCCC2)cc1 [Example 2, 4'-Cyclohexylmethylbiphenyl-2-sulfonylcyanamide] | 51.6
3 | N#CNS(=O)(=O)c1ccccc1-c1ccc(C=C2CCCC2)cc1 [Example 3, 4'-Cyclopentylidenemethylbiphenyl-2-sulfonylcyanamide] | 29.4
4 | N#CNS(=O)(=O)c1ccccc1-c1ccc(C=C2CCCCCC2)cc1 [Example 4, 4'-Cycloheptylidenemethylbiphenyl-2-sulfonylcyanamide] | 30.5
5 | N#CNS(=O)(=O)c1ccccc1-c1ccc(/C=C\c2ccccc2)cc1 [Example 5, cis-4'-Styrylbiphenyl-2-sulfonylcyanamide] | 21.2
6 | N#CNS(=O)(=O)c1ccccc1-c1ccc(/C=C/c2ccccc2)cc1 [Example 6, trans-4'-Styrylbiphenyl-2-sulfonylcyanamide] | 19.3
7 | N#CNS(=O)(=O)c1ccccc1-c1ccc(CCc2ccccc2)cc1 [Example 7, 4'-Phenethylbiphenyl-2-sulfonylcyanamide] | 64.2
8 | N#CNS(=O)(=O)c1ccccc1-c1ccc(/C=C\C2CCCCC2)cc1 [Example 8, cis-4'-(2-Cyclohexylvinyl)biphenyl-2-sulfonylcyanamide] | 13.4
9 | N#CNS(=O)(=O)c1ccccc1-c1ccc(/C=C/C2CCCCC2)cc1 [Example 9, trans-4'-(2-Cyclohexylvinyl)biphenyl-2-sulfonylcyanamide] | 12.8
10 | N#CNS(=O)(=O)c1ccccc1-c1ccc(CCC2CCCCC2)cc1 [Example 10, 4'-(2-Cyclohexylethyl)biphenyl-2-sulfonylcyanamide] | 24.3
